Structures are written as SMILES.

This data set can be described thus: Clinical trials of oral azimilide: incidence of torsades de pointes (TdP). In kind it is in vivo, patients. Here is the method:
Clinical trials are conducted where 5375 patients receive oral doses of azimilide. Patients are administered azimilide using a 3-day, twice daily loading regimen of 150-250 mg/day followed by a daily maintenance regimen (75-125 mg/day) of ½ of the loading dose, or are given daily azimilide (75, 100 or 125 mg/day) without a loading regimen. Overall about 75% of the patients are men and about 25% are women. Two cases of TdP are found in placebo-assigned patients and 54 azimilide-associated cases of TdP. Lack of aspirin use or lack of statin use is more frequent in azimilide patients with TdP. A total of 1191 (22%) patients (243 [16%] females and 948 [25%] males) are taking statins and aspirin as concomitant medication. Among the 54 patients (30 females and 24 males) who experienced TdP, 35% are on aspirin, 20% are on statins and only 11% are taking both a statin and aspirin as concomitant medication.

Regarding `CN1CCN(CCCCN2C(=O)CN(/N=C/c3ccc(-c4ccc(Cl)cc4)o3)C2=O)CC1` [azimilide], the “azimilide-associated cases of TdP” value (5375 patients receiving oral azimilide 75-125 mg/day, with or without 3-day loading regimen of 150-250 mg/day) was found to be 54 cases. Besides, the “share of patients who experienced TdP that are on aspirin” value (among the 54 patients (30 females, 24 males) who experienced TdP, concomitant aspirin) is 35%. In addition, the “share of patients who experienced TdP that are on statins” value (among the 54 patients who experienced TdP, concomitant statins) was 20%. The “share of patients who experienced TdP that are taking both a statin and aspirin” value (among the 54 patients who experienced TdP, overall 1191 (22%) of patients take statins and aspirin) turned out to be 11%.

The values are drawn from patent US8183284B2, “Compositions for reducing the incidence of drug induced arrhythmia” (Warner Chilcott Company, LLC, priority 2005, dated 2012).
